Like-named read-outs stand apart in the source and are kept apart here.
Tests used:
[1] = test system: Enterococcus sp., vancomycin susceptible; experiment: Standard microdilution susceptibility test, clinical isolates; assay type: cell-based; conditions: 20 clinical isolates
[2] = test system: Enterococcus sp., decreased vancomycin susceptibility; experiment: as above; assay type: cell-based; conditions: 5 clinical isolates
[3] = test system: Streptococcus pneumoniae, penicillin resistant; experiment: as above; assay type: cell-based
[4] = test system: Streptococcus viridans sp.; experiment: as above; assay type: cell-based; conditions: 20 clinical isolates
[5] = test system: E. casseliflavus; experiment: Microdilution MIC, Enterococcus isolates with van resistance genes; assay type: cell-based
Description: (§1) Identification and characterization of resistance patterns of these bacteria were performed by standard methods.
(§2) When forming the test groups we attached great importance to the increasing incidence of drug-resistant microbes causing therapeutic problems. Most important of them are methicillin-resistant Staphylococcus aureus (MRSA), methicillin-resistant coagulase-negative Staphylococcus spp. (MRCoNS), penicillin-resistant Streptococcus pneumoniae (pneumococcus), vancomycin-resistant Enterococcus spp. (VRE). Pneumococcus isolates represented various serotypes, VRE isolates belonged to various species. Moreover, vancomycin-resistance of VRE isolates was based on different genetic backgrounds. Antibiotic-resistant strains were also represented among international reference strains, for example methicillin-resistant Staphylococcus aureus ATCC 43300 (MRSA), Staphylococcus aureus with decreased vancomycin susceptibility ATCC 700698 and 700699 (vancomycin intermediate Staphylococcus aureus—VISA), mupirocin-resistant Staphylococcus aureus ATCC BAA1708 and vancomycin-resistant Enterococcus faecalis ATCC 51299 (VRE).
(§3) Susceptibility tests were performed according to the standard microdilution method (NCCLS (CLSI) M7-A7).
(§4) The lowest concentration at which no bacterial growth was observed after the incubation period is the Minimal Inhibitory Concentration (MIC). The MIC value is inversely proportional to the antimicrobial efficacy. MIC values of antimicrobial agents can differ by species or even by bacterial strains within species.

[6] = test system: E. faecalis; experiment: as above; assay type: cell-based
Description: as §1, §2, §3, §4

[7] = test system: E. faecium; experiment: as above; assay type: cell-based; conditions: resistance gene van B
Description: as §1, §2, §3, §4

[8] = test system: Staphylococcus epidermidis 7586; conditions: cited from earlier work
[9] = test system: Staphylococcus aureus 7503; conditions: cited from earlier work
[10] = test system: Diphteroides 8264; conditions: cited from earlier work
[11] = test system: Staphylococcus saprophyticus 8454; conditions: cited from earlier work
[12] = test system: Streptococcus mitis 5728; conditions: cited from earlier work
[13] = test system: Staphylococcus hominis 7835; conditions: cited from earlier work
[14] = test system: Staphylococcus capitis; conditions: cited from earlier work
[15] = test system: Staphylococcus aureus ATCC 25923; conditions: cited from earlier work
[16] = test system: Enterobacter cloacae B 520; conditions: cited from earlier work
[17] = test system: Bacillus subtilis ATCC 6633; conditions: cited from earlier work
[18] = test system: Propionibacterium acnes; conditions: cited from earlier work
[19] = test system: S. aureus; conditions: by Bryskier; cited from earlier work
[20] = test system: S. aureus ATCC 25923; conditions: by Bryskier; cited from earlier work
[21] = test system: S. pyogenes; conditions: by Bryskier; cited from earlier work
[22] = test system: Streptococcus mitis; conditions: by Bryskier; cited from earlier work
[23] = test system: Micrococcus; conditions: by Bryskier; cited from earlier work
[24] = test system: Coryneform(s); conditions: by Bryskier; cited from earlier work
[25] = test system: B. subtilis ATCC 6633; conditions: by Bryskier; cited from earlier work
[26] = test system: Enterobacter cloacae; conditions: by Bryskier; cited from earlier work
[27] = test system: Propionibacterium acnes; conditions: by Bryskier; cited from earlier work
[28] = test system: S. aureus ATCC 25923; conditions: Uri and Actor 1979; cited from earlier work
[29] = test system: Gram-negative species; conditions: crystalline primycin and amorphous predecessor; Uri and Actor 1979; cited from earlier work
[30] = test system: laboratory strain Listeria monocytogenes; conditions: Uri 1986; cited from earlier work
[31] = test system: erythromycin-sensitive Staphylococcus spp. strains; conditions: collection of 279 strains; cited from earlier work
[32] = test system: erythromycin-resistant staphylococci; conditions: 71 strains; cited from earlier work
[33] = test system: Gram-negative species; conditions: Horváth 1979; the patent calls the statement unfounded; cited from earlier work
[34] = test system: S. aureus and coagulase-negative staphylococci; conditions: Bryskier 2005; cited from earlier work
[35] = test system: enterococci and S. pyogenes; conditions: Bryskier 2005; cited from earlier work
[36] = test system: Corynebacterium spp., Enterobacteriaceae species, Pseudomonas aeruginosa, yeasts and dermatophytes; conditions: Bryskier 2005; cited from earlier work

Q: What does the source list for Primycin?
A: MIC 50% [1]: 0.5 µg/mL; MIC 90% [1]: 0.5 µg/mL; MIC Range [1]: 0.5 to 1 µg/mL; Ratio of Sensitive/Total [1]: 20/20; MIC Range [2]: 0.25 to 0.5 µg/mL; Ratio of Sensitive/Total [2]: 5/5; MIC 50% ([3]; 10 clinical isolates): 0.5 µg/mL; MIC 90% ([3]; 10 clinical isolates): 1 µg/mL; MIC Range ([3]; 10 clinical isolates): 0.5 to 1 µg/mL; Ratio of Sensitive/Total ([3]; 10 clinical isolates): 10/10; MIC ([3]; single isolate, serotype 23(F)): 0.5 µg/mL; MIC 50% [4]: 1 µg/mL; MIC 90% [4]: 1 µg/mL; MIC Range [4]: 0.5 to 1 µg/mL; Ratio of Sensitive/Total [4]: 20/20; MIC ([5]; resistance gene van C1): 0.5 µg/mL; MIC ([5]; resistance gene van C2): 0.5 µg/mL; MIC ([6]; resistance gene van A): 0.5 µg/mL; MIC ([6]; resistance gene van C1): 0.5 µg/mL; MIC [7]: 0.25 µg/mL; MIC [8]: 0.78 µg/mL; MIC [9]: 0.39 µg/mL; MIC [10]: 50.0 µg/mL; MIC [11]: 0.39 µg/mL; MIC [12]: 50.0 µg/mL; MIC [13]: 0.39 µg/mL; MIC [14]: 0.78 µg/mL; MIC [15]: 25.0 µg/mL; MIC [16]: 50.0 µg/mL; MIC [17]: 0.39 µg/mL; MIC [18]: <0.1 µg/mL; MIC [19]: 0.39 µg/mL; MIC [20]: 25 µg/mL; MIC [21]: 1.56 µg/mL; MIC [22]: 50 µg/mL; MIC [23]: 0.78 µg/mL; MIC [24]: 50 µg/mL; MIC [25]: 0.39 µg/mL; MIC [26]: 50 µg/mL; MIC [27]: <0.1 µg/mL; MIC (not inhibited at the highest concentration tested) [28]: > 2 µg/mL; efficacy against Gram-negative species [29]: ineffective; MIC [30]: 0.25 µg/mL; share of strains primycin-resistant (MIC≧5 mg/L) [31]: 1%; share of strains presenting primycin resistance [32]: 13%; MIC versus Gram-positives [33]: hundred times higher; efficacy [34]: effective; efficacy [35]: moderate efficacy; efficacy [36]: ineffective
